Results as given in patent US11999727B2 (Tango Therapeutics, Inc., priority 2020, dated 2024).
Read-outs that look alike come from different tables or passages of the source.

Key:
PRMT5 [1] = target: T1, PRMT5 (Homo sapiens, UniProt O14744); assay: PRMT5 biochemical IC50 assay with SAM as cofactor; conditions: PRMT5, SAM as cofactor; read-out: SAM IC50
T1 construct: purchased Viva (custom protein)

PRMT5 [2] = target: T1, PRMT5; assay: PRMT5 biochemical IC50 assay with no cofactor; conditions: PRMT5, no cofactor
Description: Table 1 indicates IC50 values (μM) against PRMT5 for exemplary compounds in the presence of SAM as cofactor, with no cofactor, and with MTA as cofactor, respectively (columns 4-6). […] Ki values can be calculated from the IC50 values as described in the Examples section. As detailed in the Examples section, for the assay performed in the presence of SAM, IC50=Ki×1.5 (Ki=IC50/1.5).

[3] = system: HAP1 MTAP-deleted cell line; assay: Viability assay, MTAP-deleted cell line; type: cell-based; conditions: read-out: HAP1 MTAP deleted viability
Description: Table 1 additionally indicates IC50 values in a viability assay for the MTAP-deleted cell line (column 10), indicating the effect of treatment with compound on cell survival.

[4] = system: HAP1 MTAP-deleted cell line; assay: SDMA in-cell western assay, HAP1 MTAP-deleted; type: cell-based; conditions: for IC50: HAP1 MTAP-deleted
Outline: (§1)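 Isogenic HAP1 pair: the MTAP-intact line expresses endogenous MTAP, and the deleted line is MTAP-null. Symmetric dimethylarginine was detected by in-cell western and IC50 values derived for each line.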

PRMT5 [5] = target: T1, PRMT5; assay: PRMT5 biochemical IC50 assay with MTA as cofactor; conditions: PRMT5, MTA as cofactor; read-out: MTA IC50
[6] = system: HAP1 MTAP-intact cell line; assay: SDMA in-cell western assay, HAP1 MTAP-intact; type: cell-based; conditions: HAP1 MTAP-intact, read-out: MTAP HAP1 intact IC50
Outline: as §1

[7] = Homo sapiens, HAP1, viability assay, MTAP-deleted cell line
[8] = Homo sapiens, HAP1, SDMA in-cell western, read-out: HAP 1 MTAP deleted IC50
[9] = IC50 ratio HAP1 MTAP-intact / HAP1 MTAP-deleted, SDMA in-cell western
[10] = Homo sapiens, HAP1, SDMA in-cell western
[11] = Homo sapiens, HAP1, SDMA in-cell western, read-out: HAP1 MTAP deleted IC50
[12] = IC50 ratio HAP1 MTAP-intact vs HAP1 MTAP-deleted, SDMA in-cell western
[13] = read-out: No Cofactor/ rel IC50
[14] = Homo sapiens, HAP1, viability, HAP1 MTAP-deleted cell line
[15] = viability assay, MTAP-deleted cell line
[16] = SDMA in-cell western, read-out: HAP 1 MTAP deleted IC50

T1 sequence (O14744 whole entry): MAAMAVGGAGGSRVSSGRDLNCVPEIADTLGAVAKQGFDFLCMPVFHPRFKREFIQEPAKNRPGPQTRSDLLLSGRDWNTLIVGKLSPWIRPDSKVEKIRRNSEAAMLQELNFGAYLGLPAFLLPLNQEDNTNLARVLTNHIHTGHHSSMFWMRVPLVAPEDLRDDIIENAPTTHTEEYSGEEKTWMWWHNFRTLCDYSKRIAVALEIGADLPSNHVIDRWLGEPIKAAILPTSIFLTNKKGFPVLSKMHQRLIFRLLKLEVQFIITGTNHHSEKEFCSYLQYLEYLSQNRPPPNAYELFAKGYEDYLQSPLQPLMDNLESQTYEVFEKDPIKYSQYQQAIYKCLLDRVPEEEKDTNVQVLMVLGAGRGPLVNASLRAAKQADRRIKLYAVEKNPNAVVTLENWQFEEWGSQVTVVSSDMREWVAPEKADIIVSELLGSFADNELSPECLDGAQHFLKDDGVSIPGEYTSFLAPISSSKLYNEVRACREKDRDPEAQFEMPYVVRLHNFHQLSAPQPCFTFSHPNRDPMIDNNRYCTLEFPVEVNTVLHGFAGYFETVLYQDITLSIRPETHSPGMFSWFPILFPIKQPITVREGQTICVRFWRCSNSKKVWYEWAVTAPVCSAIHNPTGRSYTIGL
T1 sequence (Q9BQA1 whole entry partner): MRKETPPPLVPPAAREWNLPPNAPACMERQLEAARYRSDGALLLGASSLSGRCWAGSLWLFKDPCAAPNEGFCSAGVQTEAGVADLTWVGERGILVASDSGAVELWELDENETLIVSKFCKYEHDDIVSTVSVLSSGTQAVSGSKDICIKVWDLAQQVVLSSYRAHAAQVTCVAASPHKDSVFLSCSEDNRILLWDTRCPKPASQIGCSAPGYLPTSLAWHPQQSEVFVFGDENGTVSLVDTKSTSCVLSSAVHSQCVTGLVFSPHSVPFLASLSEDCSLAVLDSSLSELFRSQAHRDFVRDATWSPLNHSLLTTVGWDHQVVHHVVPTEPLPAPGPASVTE

IC50 (PRMT5 [1]) [nM]	IC50 (PRMT5 [2]; read-out: No Cofactor/rel IC50) [nM]	IC50 [4, 8] [nM]	IC50 (PRMT5 [5]) [nM]	IC50 [6, 10] [nM]	IC50 [4, 11] [nM]	IC50 (PRMT5 [2]; [13]) [nM]	IC50 [4, 16] [nM]	IC50 ([6]; SDMA in-cell western) [nM]	Structure (SMILES)	IC50 [3, 7] [nM]	MTAP intact/deleted ratio [4, 9]	MTAP intact/deleted ratio [4, 12]	IC50 [3, 14] [nM]	IC50 ([3]; Homo sapiens, HAP1, viability assay, HAP1 MTAP-deleted) [nM]	IC50 ([3]; Homo sapiens, HAP1, viability IC50, MTAP-deleted cell line) [nM]	IC50 [3, 15] [nM]
50 to 500	50 to 500	> 1000	50 to 500	> 1000	–	–	–	–	C[C@@H]1CC[C@@H](c2cnc3c(c2)CCC(=O)N3)N(C(=O)C(=O)Nc2cncc(C(N)=O)c2)C1 (racemic) [Compound 888, rac-5-[[2-[(2S,5R)-5-Methyl-2-(7-oxo-6,8-dihydro-5H-1,8-naphthyridin-3-yl)-1-piperidyl]-2-oxo-acetyl]amino]pyridine-3-carboxamide]	> 10000	C (an IC50 ratio of less than 3 fold)	–	–	–	–	–
< 50	< 50	–	< 50	< 100	< 100	–	–	–	CCc1cc(NC(=O)C(=O)N2C[C@@H](C)CC[C@@H]2c2ccc3sc(C4CN(C)C4)nc3c2)cnc1N [Compound 1151, N-(6-amino-5-ethylpyridin-3-yl)-2-((2R,5S)-5-methyl-2-(2-(1-methylazetidin-3-yl)benzo[d]thiazol-5-yl)piperidin-1-yl)-2-oxoacetamide]	< 1000	–	A (an IC50 ratio greater than or equal to 10 fold)	–	–	–	–
50 to 500	–	< 100	< 50	100 to 1000	–	50 to 500	–	–	COCCc1nc2cc([C@@H]3CC[C@@H](C)CN3C(=O)C(=O)Nc3cnc(N)c(C4CC4)c3)ccc2s1 (single isomer, unassigned) [Compound 1332]	–	–	–	< 1000	–	–	–
> 500	> 500	–	> 500	> 1000	> 1000	–	–	–	C[C@@H]1CC[C@@H](c2ccc(-c3cncs3)cc2)N(C(=O)C(=O)Nc2cncc(C(N)=O)c2)C1 (single isomer, unassigned) [Compound 817, 5-(2-(5-methyl-2-(4-(thiazol-5-yl)phenyl)piperidin-1-yl)-2-oxoacetamido)nicotinamide]	–	C (an IC50 ratio of less than 3 fold)	–	–	> 10000	–	–
50 to 500	50 to 500	> 1000	< 50	> 1000	–	–	–	–	CNS(=O)(=O)c1cccc([C@@H]2CC[C@@H](C)CN2C(=O)C(=O)Nc2cncc(C(N)=O)c2)c1 (racemic) [Compound 666, 5-[[2-[(2S,5R)-5-methyl-2-[3-(methylsulfamoyl)phenyl]-1-piperidyl]-2-oxo-acetyl]amino]pyridine-3-carboxamide]	–	–	–	–	–	> 10000	–
50 to 500	50 to 500	100 to 1000	50 to 500	> 1000	–	–	–	–	Cc1cc(NC(=O)C(=O)N2C[C@H](C)C[C@@H](F)[C@H]2c2ccc(F)cc2)cnc1N (racemic) [Compound 939, N-(6-amino-5-methyl-3-pyridyl)-2-[(2R,3R,5R)-3-fluoro-2-(4-fluorophenyl)-5-methyl-1-piperidyl]-2-oxo-acetamide]	1000 to 10000	A (an IC50 ratio greater than or equal to 10 fold)	–	–	–	–	–
> 500	50 to 500	< 100	50 to 500	> 1000	–	–	–	–	Cc1cc(NC(=O)C(=O)N2C[C@H](C)CC[C@H]2c2cncc(Cl)c2)cnc1N (racemic) [Compound 1025, N-(6-amino-5-methyl-3-pyridyl)-2-[(2R,5S)-2-(5-chloro-3-pyridyl)-5-methyl-1-piperidyl]-2-oxo-acetamide]	1000 to 10000	A (an IC50 ratio greater than or equal to 10 fold)	–	–	–	–	–
50 to 500	–	–	< 50	–	–	50 to 500	< 100	100 to 1000	Cc1cc(NC(=O)C(=O)N2CC(C)(C)CCC2c2ccccc2)cnc1N (single isomer, unassigned) [Compound 52, N-(6-amino-5-methylpyridin-3-yl)-2-(5,5-dimethyl-2-phenylpiperidin-1-yl)-2-oxoacetamide]	–	A (an IC50 ratio greater than or equal to 10 fold)	–	–	–	–	1000 to 10000
> 500	> 500	> 1000	> 500	> 1000	–	–	–	–	COc1ncc(NC(=O)C(=O)N2C[C@H](C)CC[C@H]2c2cc3cn[nH]c3s2)cc1C(N)=O (single isomer, unassigned) [Compound 950, 2-methoxy-5-(2-(5-methyl-2-(1H-thieno[2,3-c]pyrazol-5-yl)piperidin-1-yl)-2-oxoacetamido)nicotinamide]	> 10000	B (an IC50 ratio greater than or equal to 3 fold but lower than 10 fold)	–	–	–	–	–
50 to 500	–	–	< 50	–	–	50 to 500	100 to 1000	> 1000	CC(=O)N1CCC(c2cccc(C3CCCCN3C(=O)C(=O)Nc3cnc(N)c(C)c3)c2)CC1 (single isomer, unassigned) [Compound 96]	–	A (an IC50 ratio greater than or equal to 10 fold)	–	–	–	–	> 10000
50 to 500	–	< 100	< 50	100 to 1000	–	< 50	–	–	CCc1cc(NC(=O)C(=O)N2C[C@@H](C)CC[C@@H]2c2ccc(N3CCCC4(CCN(C)CC4)C3)cc2)cnc1N [Compound 1401, N-(6-Amino-5-ethyl-3-pyridyl)-2-[(2R,5S)-5-methyl-2-[4-(9-methyl-2,9-diazaspiro[5.5]undecan-2-yl)phenyl]-1-piperidyl]-2-oxo-acetamide]	–	A (an IC50 ratio greater than or equal to 10 fold)	–	< 1000	–	–	–
50 to 500	–	< 100	< 50	> 1000	–	50 to 500	–	–	C[C@H]1CC[C@@H](C2CCCCC2)N(C(=O)C(=O)Nc2cncc(C(N)=O)c2)C1 (single isomer, unassigned) [Compound 121]	1000 to 10000	A (an IC50 ratio greater than or equal to 10 fold)	–	–	–	–	–
50 to 500	50 to 500	–	< 50	> 1000	< 100	–	–	–	Cc1ncc(NC(=O)C(=O)N2C[C@@H](C)CC[C@@H]2c2ccccc2)cc1C(N)=O (single isomer, unassigned) [Compound 200]	1000 to 10000	A (an IC50 ratio greater than or equal to 10 fold)	–	–	–	–	–
< 50	–	< 100	< 50	> 1000	–	50 to 500	–	–	C[C@@H]1CC[C@@H](c2cccnc2)N(C(=O)C(=O)Nc2cncc(C(N)=O)c2)C1 (single isomer, unassigned) [Compound 106]	1000 to 10000	A (an IC50 ratio greater than or equal to 10 fold)	–	–	–	–	–
50 to 500	< 50	–	< 50	100 to 1000	< 100	–	–	–	CCc1cc(NC(=O)C(=O)N2C[C@@H](C)CC[C@@H]2c2ccc(OCC3CCN(C)CC3)cc2)cnc1N [Compound 1206]	< 1000	–	A (an IC50 ratio greater than or equal to 10 fold)	–	–	–	–
> 500	50 to 500	> 1000	50 to 500	> 1000	–	–	–	–	C[C@H]1CC[C@H](c2cc[nH]n2)N(C(=O)C(=O)Nc2cncc(C(N)=O)c2)C1 (single isomer, unassigned) [Compound 978]	> 10000	C (an IC50 ratio of less than 3 fold)	–	–	–	–	–
